In ChEMBL document CHEMBL1133885, “A short synthesis of argatroban. a potent selective thrombin inhibitor” (Bioorg Med Chem Lett, 2001):
pIC50: −log10 of the molar value.

Assay: Concentration required for 50% inhibition of thrombin induced platelet aggregation
Type: functional

C[C@@H]1CCN(C(=O)[C@H](CCCNC(=N)N)NS(=O)(=O)c2cccc3c2NC[C@H](C)C3)[C@@H](C(=O)O)C1 [ARGATROBAN]
pIC50: 8.05
